Experimental data reported in patent US12268669B2, “Pharmaceutical compositions and methods comprising a combination of a benzoxazole transthyretin stabilizer and an additional therapeutic agent” (Pfizer Inc., priority 2018, dated 2025).

Tests used:
[1] = test system: amyloidogenic light chains; conditions: cited from earlier work
[2] = test system: TTR tetramers (WT or V122I); assay: WT and V122I TTR fibril formation inhibition assay (turbidity at 350 nm, acidic conditions, 72 h); assay type: biochemical; conditions: WT or V122I TTR 3.6 μM; compound 3.6 and 7.2 μM; pH 4.4 or 4.5; 72 h (values only in FIG. 1 and 2)
Protocol: Inhibition of WT and V122I TTR fibril formation under acidic conditions after 72 h-a sufficient period for aggregation to go to completion in the vehicle control (See Hurshman, A. R., White, J. T., Powers, E. T., Kelly, J. W.; Transthyretin aggregation under partially denaturing conditions is a downhill polymerization. Biochemistry 2004, 43, 7365-7381). Purified TTR tetramers (WT or V122I at 3.6 μM) were mixed with DMSO (vehicle control), Fx-1005 (positive control, See Razavi H, et al. Benzoxazoles as transthyretin amyloid fibril inhibitors: synthesis, evaluation, and mechanism of action. Angew Chem Int Ed Engl 2003, 42, 2758-2761), Fx-1003 (positive control) or PTC124 at final concentrations of 3.6 and 7.2 μM, and incubated for 30 minutes at 25° C. After adjusting the pH to 4.4 or 4.5, samples were incubated at 37° C. for 72 h. The turbidity was then measured at 350 nm using a UV-vis spectrometer. All endpoint amyloid fibril formation yields (which are slightly different for WT and V122I) were normalized for each allele to amyloidogenesis in the absence of stabilizer, assigned to be 100% fibril formation. Therefore, 5% fibril formation corresponds to a compound inhibiting 95% of TTR fibril formation after 72 h (See Miroy, G. J., et al. Inhibiting transthyretin amyloid fibril formation via protein stabilization. Proc Natl Acad Sci USA 1996, 93, 15051-15056). […]

Structure (SMILES) | prevention of fibril formation ([1]; amyloidogenic light chains) | binding to amyloidogenic light chains [1] | inhibition of TTR fibril formation [2]
O=C(O[C@@H]1Cc2c(O)cc(O)cc2O[C@@H]1c1cc(O)c(O)c(O)c1)c1cc(O)c(O)c(O)c1 | prevent fibril formation | bind to amyloidogenic light chains | –
O=C(O)c1cccc(-c2noc(-c3ccccc3F)n2)c1 [Ataluren, 3-[5-(2-fluorophenyl)-1,2,4-oxadiazol-3-yl]benzoic acid] | – | – | inhibit TTR fibril formation
